Results published in patent publication US7378387B2, “Method of suppressing immune response by reducing intracellular content of glutathione in macrophages and monocytes” (Ajinomoto Co., Inc., priority 1997, dated 2008).
Where a name gives a salt, the structure may show the parent alone.

Columns and labels:
IL-12 [1] = assay: IL-12 production from macrophages induced through administration (Example 9, Table 1); format: in vivo, DBA/2 mice; conditions: LPS 100 ng/ml, IFNγ 100 units/ml
Experimental: (§1) The amount of IL-12 was determined through bioassay using cells of human T cell strain 2D6 (J. Leukocyte Biology, vol. 61, p. 346, 1997).
(§2) 2D6 cells which had been incubated in an RPMI 1640 medium containing 500 pg/ml of recombinant human IL-12, 50 μM of 2-mercaptoethanol and 10% FCS (fetal calf serum) were moved to a tube, and centrifugally washed three times with the above-mentioned medium without IL-12 and cell density was adjusted to 1×10^5/ml. The cell suspension was added in an amount of 100 μl each to a 96-well flat bottom plate containing a sample serially diluted in advance with an RPMI 1640 medium containing 50 μM of 2-mercaptoethanol and 10% FCS in an amount of 100 μl each. Subsequently, the mixture was charged into a 5% […] incubator of 37° C., and incubated for 48 hours. For final 6 hours, ^3H-TdR was pulsed (a substance adjusted to 370 kBq/ml in an RPMI 1640 medium containing 50 μM of 2-mercaptoethanol and 10% FCS was added in an amount of 50 μl each). The cells a harvested, and the radioactivity was measured using a β counter (Matrix 96, supplied by Packard).
(§3) The increase in the amounts of oxidative macrophages can easily be determined visually from the fact that almost no reaction product with monochlorobimane is observed, namely, a gray or blue image is provided, and the increase in the amounts of reductive macrophages from the fact that a red or yellow image is provided respectively. […] Meanwhile, the same examination was conducted by harvesting peritoneal exudate cells after 20 hours of the administration of 2 mg of N-acetylcystine (NAC).
(§4) Thus, the peritoneal exudate adherent cells were incubated in the following manner, and the amounts of NO and IL-12 produced in the culture supernatant were measured. With respect to the amount of IL-6, the amount of IL-6 produced spontaneously in the absence of a stimulator was measured.
(§5) Cells: The peritoneal exudate adherent cells obtained by the stimulation, namely, the macrophages were added to a 96-well microplate in an amount of 1×10^5 cells/200 μl each.
(§6) Medium: Phenol red-free RPMI 1640: 200 μl/well
(§7) LPS: Lipopolysaccharide (made by Sigma Co.) (origin: E. coli) 100 ng/ml

NO [2] = assay: NO production from macrophages induced through administration (Example 9, Table 1); format: in vivo, DBA/2 mice; conditions: LPS 100 ng/ml, IFNγ 100 units/ml
Experimental: (§8) A stimulator was added to 1×10^5 MΦ, and the incubation was conducted at 37° C. for 2 days in a CO2 incubator. After the completion of the centrifugation, the culture supernatant was collected.
(§9) One hundred microliters of a Griess-Romijn reagent (supplied by Waco Pure Chemical Industries, Ltd.) adjusted to a concentration of 50 mg/ml in distilled water were added to 100 μl of the culture supernatant, and the reaction was conducted at room temperature for 15 minutes. After the completion of reaction, an absorbance of 540 nm was measured. NaNO2 was used as a standard.
as §3, with “This was clarified by harvesting peritoneal exudate cells 20 hours after the completion of the administration, adhering the cells to the plastic surface, then reacting the cells with 10 μM of monochlorobimane at 37° C. for 30 minutes, and analyzing the reaction product with ACAS. The” for “The”
as §4, §5, §6, §7

IL-6 [3] = assay: IL-6 production from macrophages induced through administration (Example 9, Table 1); format: in vivo, DBA/2 mice; parameters: concentration or dose not given beside the values; conditions: produced spontaneously in the absence of a stimulator
Experimental: (§10) A stimulator was added to 1×10^6 MΦ, and the incubation was conducted at 37° C. for 2 days in a CO2 incubator. After centrifugation, the culture supernatant was collected.
(§11) The amount of IL-6 was determined using IL-6 dependent mouse hybridoma MH60 cells (J. Eur. Immunol., vol. 18, p. 951, 1988). One hundred microliters of the culture supernatant were added to 100 μl of the MH60 cell suspension adjusted to 1×10^5 cells/ml in a 10% FCS-containing RPMI medium, and the mixed solution was incubated at 37° C. for 2 days in a CO2 incubator. Subsequently, 10 μl of MTT (supplied by Sigma Co.) solution adjusted to a concentration of 5 mg/ml in the same medium were added thereto, and the reaction was conducted at 37° C. for 5 hours. After the completion of the reaction, the centrifugation was conducted. The supernatant (160 μl) was removed, and 100 μl of a mixture of hydrochloric acid and propanol were added to the residue. The suspension was conducted using a pipetman to dissolve the cells. Immediately after the dissolution, an absorbance of 570 nm was measured with an immunometer (supplied by Bio-Rad).
as §3, with “This was clarified by harvesting peritoneal exudate cells 20 hours after the completion of the administration, adhering the cells to the plastic surface, then reacting the cells with 10 μM of monochlorobimane at 37° C. for 30 minutes, and analyzing the reaction product with ACAS. The” for “The”
as §4, §5, §6

IL-12 [4] = assay: IL-12 production by MΦ induced by intraperitoneal injection of substances (Example 7); format: in vivo, mouse; conditions: MΦ induced by intraperitoneal injection of the substance; stimulation with LPS and IFNγ
Experimental: as §1, §2
It was examined whether there is a difference in the IL-12 production between LNT-induced MΦ and LPS-induced MΦ. […] Next, the same analysis was conducted using MΦ induced by intraperitoneally injecting substances for changing the GSH content in cells.

IL-12 [5] = assay: Suppression of IL-12 production of reductive MΦ by DEM or IL-4 (Example 7); format: cell-based, mouse
Experimental: as §1, §2
As mentioned above, IL-12 was produced only in reductive MΦ having the high GSH content in cells. It was examined whether this production is suppressed by converting MΦ to oxidative MΦ. That is, it was analyzed whether the IL-12 production is suppressed by exposing lentinan-induced MΦ with DEM.
(§12) IL-4 is a cytokine which acts on MΦ suppressively. IL-4 is considered to have an opposite function to IL-12 in the Th1/Th2 balance as well. Accordingly, it was examined whether IL-4 acts suppressively on the IL-12 production by reductive MΦ.

[6] = system: peritoneal exudate cells (macrophages); assay: Induction of oxidative or reductive macrophages by administration, monochlorobimane/ACAS (Example 9); format: in vivo, DBA/2 mice; conditions: Day 1 and Day 2, cells harvested 20 hours later; 20 μg (NAC-OMe)2 or (NAC)2, 10 μg acetylgliotoxin, 2 mg NAC intraperitoneally; 40 μg dexamethasone subcutaneously
Experimental: as §3, with “This was clarified by harvesting peritoneal exudate cells 20 hours after the completion of the administration, adhering the cells to the plastic surface, then reacting the cells with 10 μM of monochlorobimane at 37° C. for 30 minutes, and analyzing the reaction product with ACAS. The” for “The”

[7] = system: reductive glutathione in MΦ; assay: Content of reductive glutathione in MΦ treated with IL-4, ACAS image analysis (Example 7); format: cell-based, mouse; conditions: image analysis by ACAS
Experimental: Three-hundred microliters of a cell suspension adjusted concentration of 3×10^5 cells/ml in an RPMI 1640 medium (phenol red-free) were charged into a chambered coverglass (#136439, supplied by Nunc), and incubated at 37° C. for 2 hours using a CO2 incubator. The culture solution was washed with the medium, and 300 μl of monochlorobimane (supplied by Molecular Plobe) adjusted to 10 μM in the same medium were added thereto. The mixture was charged into a CO2 incubator of 37° C., and the reaction was conducted for 30 minutes. The fluorescent intensity was measured with ACAS. In ACAS, a UV laser was used.
as §12

IL-6 [8] = assay: IL-6 production of MΦ pretreated with IL-4 (Example 7); format: cell-based, mouse
Experimental: as §10, §11
Further, MΦ of which the GSH content in cells was increased by the stimulation with GSH-OEt and MΦ of which the GSH content in cells was decreased by the stimulation of DEM were pretreated with IL-4, and IFNγ was exposed thereon to induce the IL-6 production. […]

NO [9] = assay: NO production of MΦ pretreated with IL-4 (Example 7); format: cell-based, mouse
Experimental: as §8, §9
Reductive MΦ increases the NO production by the IFNγ stimulation in comparison with oxidative MΦ, and rather suppresses the IL-6 production. IFNγ is known to be a cytokine produced from Th1 cells. […] Further, MΦ of which the GSH content in cells was increased by the stimulation with GSH-OEt and MΦ of which the GSH content in cells was decreased by the stimulation with DEM were pretreated with IL-4, and IFNγ thereafter and LPS stimulation was carried out to induce NO production.

C[C@@H]1C[C@H]2[C@@H]3CCC4=CC(=O)C=C[C@]4(C)[C@@]3(F)[C@@H](O)C[C@]2(C)[C@@]1(O)C(=O)CO [Dexamethasone, dexamethasone, reference compound]
IL-12, amount produced relative to that of control group (IL-12 [1]): 5% | NO, amount produced relative to that of control group (NO [2]): 45% | IL-6, amount produced relative to that of control group (IL-6 [3]): 1020%

CCOC(=O)/C=C\C(=O)OCC [DEM, diethyl maleate, reference compound]
IL-12 production (IL-12 [4]): produced only in MΦ derived from GSH-OEt administered mice | IL-12 production from lentinan-induced MΦ with the addition of DEM (IL-12 [5]; without DEM 828 pg/ml): 0 pg/mL

CC(=O)O[C@H]1C=CC=C2C[C@]34SS[C@](CO)(C(=O)N3[C@@H]21)N(C)C4=O [Acetylgliotoxin]
IL-12, amount produced relative to that of control group (IL-12 [1]): 14% | type of macrophages induced (monochlorobimane, ACAS) [6]: Oxidative macrophages were induced | NO, amount produced relative to that of control group (NO [2]): 22% | IL-6, amount produced relative to that of control group (IL-6 [3]): 450%

B1: IL-4: interleukin 4, a cytokine which acts on MΦ suppressively; typical Th2 cytokine (protein, UniProt P05112 25-153, looked up)
Interleukin-4: HKCDITLQEIIKTLNSLTEQKTLCTELTVTDIFAASKNTTEKETFCRAATVLRQFYSHHEKDTRCLGATAQQFHRHKQLIRFLKRLDRNLWGLAGLNSCPVKEANQSTLENFLERLKTIMREKYSKCSS
content of reductive glutathione in MΦ [7]: markedly decreases | IL-6 production of GSH-OEt-stimulated and DEM-stimulated MΦ pretreated with IL-4 (IL-6 [8]; IFNγ exposure, in comparison with IL-4-untreated MΦ): increased | IL-6 production with IFNγ after pretreatment with IL-4 (IL-6 [8]; resident MΦ, LPS-induced MΦ and LNT-induced MΦ): markedly increased | NO production of GSH-OEt-stimulated and DEM-stimulated MΦ pretreated with IL-4 (NO [9]; IFNγ and LPS stimulation, both subsets of MΦ): remarkably suppressed | IFNγ NO production from MΦ pretreated with IL-4 in comparison with untreated MΦ (NO [9]; IFNγ stimulation): significantly suppressed | IL-12 production by GSH-OEt administered mouse MΦ after pretreatment with IL-4 (IL-12 [5]; without IL-4 490 pg/ml): 258 pg/mL | IL-12 production by LNT-induced MΦ after pretreatment with IL-4 (IL-12 [5]; without IL-4 1,580 pg/ml): 370 pg/mL
